Test results taken from patent US5571816A, “Pyrimidines” (Hoechst Aktiengesellschaft, priority 1992, dated 1996).
Where a name gives a salt, the structure may show the parent alone. Read-outs that look alike come from different tables or passages of the source.

Assays:
[1] = Solubility in water of salts (and free bases); type: physicochemical; conditions: for solubility: water
[2] = test system: serum lipoproteins; test: Effect on serum lipoproteins of normolipemic male rats in a subchronic experiment; type: in vivo; conditions: Rattus norvegicus, po, by stomach tube, 7 administrations; for change in vivo at 100 mg/kg: 100 mg/kg/day; for change in vivo at 3 mg/kg: 3 mg/kg/day; for change in vivo at 10 mg/kg: 10 mg/kg/day; for change in vivo at 30 mg/kg: 30 mg/kg/day
Experimental: 3. In vivo, the increased LDL receptor activity in experimental animals is reflected by reduction in the lipoprotein fractions which can be metabolized by the LDL receptor (apoB/E receptor), i.e. a reduction in the LDL and VLDL levels is observed. The following test was carried out:
Effect on serum lipoproteins of normolipemic male rats in a subchronic experiment
Groups of in each case 10 male rats of the HOE: WISKf (SPF 71) strain with an initial weight above 180 g received once a day (in the morning) the test product or the comparison product in 1% aqueous ®Tylose MH 300 solution by stomach tube (0.5 ml/100 g of body weight); the control group in each case received only the vehicle. The last (7th) administration took place 24 hours before removal of blood and sacrifice. There was free access to food and water during the test. The food was withdrawn 24 hours before the removal of blood.
The serum from all 10 rats in a group was pooled for the analysis of the serum lipoproteins. The serum lipoproteins were separated with a preparative ultracentrifuge (KONTRON TGA 65, Rotor BECKMAN 50.4 Ti).
The following conditions specified by Koga, S., Horwitz, D. L., and Scanu, A. M., Journal of Lipid Research 10, 577 (1969) and Havel, R. J., Eder, H. A., and Bragdon, H. H., J. Clin. Invest. 34, 1345 (1955) were used to separate VLDL and LDL: 1. VLDL: Density<1.006, 40,000 rpm for 16 hours 2. LDL: Density 1.006-1.04, 40,000 rmp for 16 hours
Test kits from BOEHRINGER/Mannheim were used for the enzymatic determination of cholesterol and triglycerides in the separated lipoprotein fractions (cf. Siedel, J., Schlumberger, H., Klose, S., Ziegenhorn, J. and Wahlefeld, A. W., J. Clin. Chem. Clin. Biochem. 19, 838 (1981) and Wahlefeld, A. W., in: H. O. Bergmeier: Methoden der enzymatischen Analyse (Methods of Enzymatic Analysis), 2nd edition, Volume II, Verlag Chemie 1974, page 1878). The proteins were determined by the method of Lowry (Lowry, O. H., Roseborough, N. H., Farr, A. L. and Randell, R. J., J. Biol. Chem. 193, 265 (1951)).
Clofibrate was used as comparison product.

[3] = read-out: Serum LDL cholesterol, % change from control at end of treatment
[4] = read-out: Serum LDL protein, % change from control at end of treatment
[5] = read-out: Serum VLDL cholesterol, % change from control at end of treatment
[6] = read-out: Serum VLDL protein, % change from control at end of treatment
[7] = read-out: Serum VLDL triglycerides, % change from control at end of treatment
[8] = Table 2, salts of compounds I, temp. by No. [°C]: 1 25.5, 2 23.0, 3 22.4, 4 22.4, 5 22.0, 6 25.0, 7 25.5, 8 25.5, 9 25.5, 10 23.5, 11 23.5, 12 25.0, 13 24.0, 14 23.0, 15 22.0, 16 24.5, 17 22.5, 18 22.0
[9] = Table 2, salts of compounds I, temp. by No. [°C]: 1 25.5, 2 23.0, 3 22.4, 4 22.4, 5 22.0, 6 25.0, 7 25.5, 8 25.5, 9 25.5, 10 23.5, 11 23.5, 12 25.0, 13 24.0, 14 23.0, 15 22.0, 16 24.5, 17 22.5, 18 22.0, read-out: Solubility in water, Concentration in % by wt.
[10] = Table 2, salts of compounds I, temp. by No. [°C]: 1 25.5, 2 23.0, 3 22.4, 4 22.4, 5 22.0, 6 25.0, 7 25.5, 8 25.5, 9 25.5, 10 23.5, 11 23.5, 12 25.0, 13 24.0, 14 23.0, 15 22.0, 16 24.5, 17 22.5, 18 22.0, nitrate

1 part by mass dissolves in ... parts by H2O [1, 8] [parts by H2 O] | solubility [1, 9] [mg/mL] | SMILES | change in vivo at 30 mg/kg [2, 3] [%] | change in vivo at 30 mg/kg [2, 4] [%] | change in vivo at 30 mg/kg [2, 5] [%] | change in vivo at 30 mg/kg [2, 6] [%] | change in vivo at 30 mg/kg [2, 7] [%] | other results
 |  | CC1(C)CN(c2ncc(C(=O)Nc3cccc(C(F)(F)F)c3)c(N)n2)C(=O)N1 [4-amino-2-(4,4-dimethylimidazolidin-2-on-1-yl)pyrimidine-5-carboxylic acid N-(3-trifluoromethylphenyl)amide, reference compound] |  |  |  |  |  | solubility in water, in words ([1]; categories of the Deutsches Arzneibuch): exceptionally slightly soluble
 |  | CCOC(=O)C(C)(C)Oc1ccc(Cl)cc1 [Clofibrate, reference compound] |  |  |  |  |  | change in vivo at 100 mg/kg [2, 3]: -31%; change in vivo at 100 mg/kg [2, 4]: -3%; change in vivo at 100 mg/kg [2, 5]: -51%; change in vivo at 100 mg/kg [2, 6]: -30%; change in vivo at 100 mg/kg [2, 7]: -34%
13.5 | 68.9 | CCN(C(=O)c1cnc(N2CC(C)(C)NC2=O)nc1N)c1cccc(C(F)(F)F)c1 [Example 1, 4-amino-2-(4,4-dimethyl-2-oxo-1-imidazolidinyl)pyrimidine-5-carboxylic acid N-ethyl-N-(3-trifluoromethylphenyl)amide] |  |  |  |  |  | 
24.7 | 38.9 | CC(C)N(C(=O)c1cnc(N2CC(C)(C)NC2=O)nc1N)c1cccc(C(F)(F)F)c1 [Example 3, 4-amino-2-(4,4-dimethyl-2-oxo-1-imidazolidinyl)pyrimidine-5-carboxylic acid N-isopropyl-N-(3-trifluoromethylphenyl)amide] |  |  |  |  |  | 
 |  | CCCCN(C(=O)c1cnc(N2CC(C)(C)NC2=O)nc1N)c1cccc(C(F)(F)F)c1 [Example 6, 4-amino-2-(4,4-dimethyl-2-oxo-1-imidazolidinyl)pyrimidine-5-carboxylic acid N-butyl-N-(3-trifluromethylphenyl)amide hydrochloride] | -62 | -36 | 41 | -41 | -69 | change in vivo at 3 mg/kg [2, 3]: -24%; change in vivo at 3 mg/kg [2, 4]: -3%; change in vivo at 3 mg/kg [2, 5]: -35%; change in vivo at 3 mg/kg [2, 6]: -12%; change in vivo at 10 mg/kg [2, 3]: -20%; change in vivo at 10 mg/kg [2, 4]: -62%; change in vivo at 10 mg/kg [2, 5]: -35%; change in vivo at 10 mg/kg [2, 6]: -15%
 |  | CN(C(=O)c1cnc(N2CC(C)(C)NC2=O)nc1N)c1cc(C(F)(F)F)ccc1Cl [Example 29] | -51 | -27 | -80 | 40 | -70 | 
 |  | CN(C(=O)c1cnc(N2CC(C)(C)NC2=O)nc1N)c1ccc(Br)c(C(F)(F)F)c1 [Example 30] |  |  |  |  |  | change in vivo at 10 mg/kg [2, 3]: -25%; change in vivo at 10 mg/kg [2, 4]: -19%; change in vivo at 10 mg/kg [2, 5]: -29%; change in vivo at 10 mg/kg [2, 6]: -36%; change in vivo at 10 mg/kg [2, 7]: 7%
 |  | CC(C)CN(C(=O)c1cnc(N2CC(C)(C)NC2=O)nc1N)c1cccc(C(F)(F)F)c1 [Example 36] | -38 | -5 | -65 | -33 | 42 | 
15.3 | 61.3 | CC(C)CC(C)N(C(=O)c1cnc(N2CC(C)(C)NC2=O)nc1N)c1cccc(C(F)(F)F)c1 (stereo not drawn) [Example 38] |  |  |  |  |  | 
 |  | CC1(C)CN(c2ncc(C(=O)N(CC3CC3)c3cc(C(F)(F)F)ccc3F)c(N)n2)C(=O)N1 [Example 41] | -66 | -36 | -100 | -45 | -80 | change in vivo at 10 mg/kg [2, 3]: -73%; change in vivo at 10 mg/kg [2, 4]: -48%; change in vivo at 10 mg/kg [2, 5]: -100%; change in vivo at 10 mg/kg [2, 6]: -52%; change in vivo at 10 mg/kg [2, 7]: -68%
51.3 | 18.7 | CCCCCN(C(=O)c1cnc(N2CC(C)(C)NC2=O)nc1N)c1cccc(C(F)(F)F)c1 [Example 47, 4-amino-2-(4,4-dimethyl-2-oxo-1-imidazolidinyl)pyrimidine-5-carboxylic acid N-pentyl-N-(3-trifluoromethylphenyl)amide hydrochloride] |  |  |  |  |  | 
 |  | CCCCN(C(=O)c1cnc(N2CCNC2=O)nc1N)c1cccc(C(F)(F)F)c1 [Example 55, 4-amino-2-(2-oxo-1-imidazolidinyl)pyrimidine-5-carboxylic acid N-butyl-N-(3-trifluoromethylphenyl)amide hydrochloride] | -29 | -9 | -14 | -18 | -20 | 
 |  | CCN(C(=O)c1cnc(N2CC(C)(C)NC2=O)nc1N)c1cc(C(F)(F)F)ccc1F [Example 60, 4-amino-2-(4,4-dimethyl-2-oxo-1-imidazolidinyl)pyrimidine-5-carboxylic acid N-ethyl-N-(2-fluoro-5-trifluoromethylphenyl)amide nitrate] |  |  |  |  |  | 1 part by mass dissolves in ... parts by H2O [1, 10]: 57.5 parts by H2 O; Solubility in water, Concentration in % by wt. [1, 10]: 1.71 % by wt.; solubility ([1]; temperature not stated, read-out: soluble in a concentration in water): 17 mg/mL
65.8 | 15 | CC1(C)CN(c2ncc(C(=O)N(CC3CC3)c3cc(C(F)(F)F)ccc3F)c(N)n2)C(=O)N1 [Example 61, 4-amino-2-(4,4-dimethyl-2-oxo-1-imidazolidinyl)pyrimidine-5-carboxylic acid N-cyclopropylmethyl-N-(2-fluoro-5-trifluoromethylphenyl)amide] |  |  |  |  |  | 
< 9 | > 100 | C=CC1CN(c2ncc(C(=O)N(C)c3cccc(C(F)(F)F)c3)c(N)n2)C(=O)N1 (stereo not drawn) [Example 72, 4-amino-2-(4-vinyl-2-oxo-1-imidazolidinyl)pyrimidine-5-carboxylic acid N-methyl-N-(3-trifluoromethylphenyl)amide hydrochloride] |  |  |  |  |  | 
24.7 | 38.9 | CC(C)CN(C(=O)c1cnc(N2CC(C)NC2=O)nc1N)c1cccc(C(F)(F)F)c1 (stereo not drawn) [Example 114] |  |  |  |  |  | 
